From patent US9757375B2, “Compounds that inhibit human DNA ligases and methods of treating cancer” (University of Maryland, Baltimore, priority 2007, dated 2017)
Like-named read-outs stand apart in the source and are kept apart here.

Key:
HeLa cell extract [1] = test: Cell extract assay with 5′-flap substrate (DNA replication and long patch base excision repair); format: biochemical, human; conditions: for Cell Extract 100 (μM): BER inhibited: kind of BER not given; for final ligation step of the flap substrate repair reaction / flap removal by FEN-1: HeLa extract, 100 μmol/L (also 25 μM in the source), FIG. 4A
Protocol: (§1) Extracts were prepared from human cervical cancer HeLa cells as described previously (27, 31). For base excision repair (BER) assays, the extraction buffer contained 100 mmol/L of KCl, whereas for nonhomologous end-joining (NHEJ) assays, extraction buffer contained 400 mmol/L of KCl. Where indicated, DNA ligases were immunodepleted from the extracts as described (32) using protein A or G Sepharose beads (GE Healthcare) and anti-Lig1, anti-LigIII (GeneTex), or anti-LigIV (ABCAM) antibodies. Depletion was confirmed by immunoblotting.
A labeled 5′-flap substrate (0.1 pmol; (31)) was incubated with 20 μg of extract in the absence or presence of ligase inhibitors (100 μmol/L) at 25° C. for 5 min in ligation buffer (final volume, 50 μL). For short patch BER, a linear duplex containing a single uracil residue was preincised by treatment with uracil DNA glycosylase and APE1 (both from NEB) to generate a strand break with 3′ hydroxyl and 5′ deoxyribose phosphate termini. Reactions (50 μL) containing 0.3 pmol of the incised DNA substrate, 10 μCi of [α^32P]dTTP, and 20 μg of extract either in the absence or presence of ligase inhibitors (100 μmol/L) were incubated at 25° C. for 2 min in ligation buffer. After separation by denaturing polyacrylamide gel electrophoresis, labeled oligonucleotides were detected in the dried gel by phosphorImager analysis (Molecular Dynamics).
Next we used published cell extract assays (16,27,28) that measure different DNA replication and repair transactions to confirm the specificity of the DNA ligase inhibitors. FIG. 4A, the flap substrate (0.1 pmol) was incubated with cell extract (20 μg) in the absence (lane 2, Mock) or presence of 100 μmol/L, of L189 (lane 3), L67 (lane 4), or L82 (lane 5). hLigI (lane 6, I-dp) and hLigIIIa (lane 7, III-dp) were immunodepleted from the cell extracts prior to incubation with the DNA substrate. Lane 1, DNA substrate alone (Sub). The positions of the DNA substrate (24-mer), cleaved product (18-mer), and fully repaired product (43-mer). The flap substrate shown in FIG. 4A corresponds to an intermediate generated on the lagging strand during DNA replication and in the long patch subpathway of base excision repair. Previously it has been shown that DNA ligase I completes these two DNA transactions after removal of the flap by FEN-1 (16,28). A cell extract from the human cervical cancer cell line HeLa was incubated with the indicated labeled flap substrate that mimics a common intermediate in DNA replication and long patch base excision repair in the absence or presence of Compounds 67, 82, 184 and 189 (25 μM). After separation by denaturing gel electrophoresis, labeled fragments corresponding to the DNA substrate, cleaved product and fully repaired product were detected by phosphorimaging (28).

HeLa cell extract [2] = test: Cell extract assay of nonhomologous end-joining (1 kb cohesive-ended fragment); format: biochemical, human; conditions: 100 μmol/L (also 25 μM in the source), FIG. 4C
Protocol: as §1
To assay NHEJ (24), a 1 kb end-labeled BamHI fragment (0.1 pmol; (33)). and 20 μg of extract were incubated in ligation buffer (final volume, 20 μL), for 120 min at 25° C. either in the presence or absence of ligase inhibitors (100 μmol/L). DNA fragments were resolved by separation through a 0.8% agarose gel. Labeled DNA fragments were detected in the dried gel by phosphorImager analysis (Molecular Dynamics).
Linear DNA molecules with short complementary single strand overhangs are repaired by non-homologous end joining that is completed by DNA ligase IV (27). A HeLa extract was incubated with a labeled linear cohesive-ended 1 kb fragment with cohesive ends repair in the absence or presence of Compounds 67, 82 and 189 (25 μM).). Lane 7, DNA ligase I was immunodepleted from the extract prior to the assay. […], DNA ligase III was immunodepleted from the extract prior to the assay. […], DNA ligase IV was immunodepleted from the extract prior to the assay. After separation by native agarose gel electrophoresis, the linear DNA substrate, re-circularized substrate and dimers trimers etc of the 1 kb substrate were detected by phosphorimaging (27). […]

HCT116 cells = test: MTT cell growth assay; format: cell-based, human; conditions: for IC50: Homo sapiens
How it was run: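 HCT116 cells (1200 per well) adhered overnight, then were exposed to serially diluted compounds for 5 days. MTT was added for 4 h, formazan dissolved in isopropanol and absorbance read at 560 nm as the growth measure.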

HCT116 and MCF10A cells = test: Screen for potentiation of DNA damaging agents, cell line not stated with the result; format: cell-based, human; conditions: for radiosensitizer activity / enhancement of the cytostatic effect of MMS / synergy with PARP inhibitors: 50 μM; for radiosensitizer activity: 2 gray of ionizing radiation; for enhancement of the cytostatic effect of MMS: MMS 100 μM; for cell survival: sensitivity to DNA damaging agent (IR, MMS): cell line not stated; for synergy with PARP inhibitors: 3 AB 2 mM
From the text: The 192 human DNA ligase inhibitors were screened in parallel for effects on proliferation and the ability to potentiate the effects of several DNA damaging agents using two cell human lines, a colon cancer line HCT116 and a normal breast epithelial cell line MCF10A using a Biomek FX Laboratory Automation Workstation as described (23). The DNA damaging agents used, methyl methanesulfonate (MMS), camptothecin, cis-platinum, 3 aminobenzamide and ionizing radiation, are representatives of classes of agents used to treat cancer. Briefly, HCT116 and MCF10A cells were plated in 96 well plates such that the cultures were about 80% confluent after 5 days incubation. Compounds were added to the cultures at either 15 μM or 50 μM 1 day after plating. After incubation for 3 days, cell lysed in a solution containing 1.2% Igepal CA-630 and SYBR green that stains DNA (1:1000, Molecular Probes, Eugene, Oreg.). Subsequently, fluorescence was measured per well. The studies with DNA damaging agents were performed as follows. […] For ionizing radiation, cells were pre-incubated with the compounds at 50 μM for 1 hour prior to exposure to 2 gray of ionizing radiation. Cultures were incubated for 3 days and then treated as above.

hLigIV/XRCC4 = hLigIV/XRCC4 (Homo sapiens, UniProt P49917); test: Radioactive gel-based DNA ligation assay; format: biochemical; design: concentration or dose not given beside the values
Sequence of hLigIV/XRCC4 (P49917 whole entry): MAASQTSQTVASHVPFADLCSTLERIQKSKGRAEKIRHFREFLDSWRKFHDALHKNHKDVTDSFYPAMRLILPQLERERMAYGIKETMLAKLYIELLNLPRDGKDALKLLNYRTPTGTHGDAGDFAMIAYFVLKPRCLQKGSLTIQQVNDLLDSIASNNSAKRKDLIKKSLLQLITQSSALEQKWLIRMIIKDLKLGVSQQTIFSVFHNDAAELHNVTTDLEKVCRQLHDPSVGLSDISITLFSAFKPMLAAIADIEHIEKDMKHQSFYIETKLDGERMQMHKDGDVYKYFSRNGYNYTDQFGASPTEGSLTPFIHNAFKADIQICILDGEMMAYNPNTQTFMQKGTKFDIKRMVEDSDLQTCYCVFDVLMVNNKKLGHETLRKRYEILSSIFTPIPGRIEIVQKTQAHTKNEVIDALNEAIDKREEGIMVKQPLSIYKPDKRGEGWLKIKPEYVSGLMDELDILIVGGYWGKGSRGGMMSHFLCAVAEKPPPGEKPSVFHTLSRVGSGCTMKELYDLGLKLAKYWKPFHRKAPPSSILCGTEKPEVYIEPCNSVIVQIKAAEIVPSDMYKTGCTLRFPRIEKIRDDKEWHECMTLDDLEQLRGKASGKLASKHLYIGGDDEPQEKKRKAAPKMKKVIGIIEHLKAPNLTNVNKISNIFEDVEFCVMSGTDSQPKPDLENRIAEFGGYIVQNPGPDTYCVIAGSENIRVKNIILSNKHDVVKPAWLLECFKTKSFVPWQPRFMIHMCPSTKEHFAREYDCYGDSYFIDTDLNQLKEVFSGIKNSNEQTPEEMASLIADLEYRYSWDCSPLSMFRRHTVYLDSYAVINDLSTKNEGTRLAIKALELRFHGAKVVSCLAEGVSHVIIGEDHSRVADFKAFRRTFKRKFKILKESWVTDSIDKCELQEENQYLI
Sequence of hLigIV/XRCC4 (Q13426 whole entry partner): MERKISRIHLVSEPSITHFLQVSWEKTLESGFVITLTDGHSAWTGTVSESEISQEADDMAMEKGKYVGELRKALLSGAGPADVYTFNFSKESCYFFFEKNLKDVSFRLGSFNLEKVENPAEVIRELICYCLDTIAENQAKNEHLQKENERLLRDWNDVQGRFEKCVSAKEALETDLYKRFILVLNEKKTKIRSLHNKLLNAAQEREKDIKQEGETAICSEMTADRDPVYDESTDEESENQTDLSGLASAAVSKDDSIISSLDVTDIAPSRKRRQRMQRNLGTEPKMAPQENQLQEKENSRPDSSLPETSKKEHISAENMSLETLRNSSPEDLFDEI

[3] = HCT-116, cell growth, compound alone, read-out: IC50 (μM) HCT116
[4] = HCT-116, sections 'high concentrations (~50 μM)' and 'active in vitro that decreased cell growth', same figures given in μM elsewhere in Table 6, read-out: IC50 HCT116 (head without unit)

Compound	Cell Extract 100 (μM): BER inhibited (HeLa cell extract [1])	final ligation step of the flap substrate repair reaction (HeLa cell extract [1])	flap removal by FEN-1 (HeLa cell extract [1])	joining of linear DNA molecules (non-homologous end joining) (HeLa cell extract [2])	IC50 (HCT116 cells; [3])	IC50 (HCT116 cells; [4])	cell survival: sensitivity to DNA damaging agent (IR, MMS) (HCT116 and MCF10A cells)	% activity Inhibition hLigIV gel (hLigIV/XRCC4)	further results
O=c1[nH]ncc(N/N=C\c2ccc(O)c([N+](=O)[O-])c2)c1Cl [Compound 82]	BER	inhibited the final ligation step of the repair reaction	had no effect on flap removal by FEN-1	had no effect	–	–	–	–	–
O=C(Cn1cnc([N+](=O)[O-])n1)N/N=C/c1ccc(O)cc1O [Compound 151]	BER	–	–	–	22 µM	22 µM	MMS sensitive	–	radiosensitizer activity (HCT116 and MCF10A cells): act as radiosensitizers; enhancement of the cytostatic effect of MMS (HCT116 and MCF10A cells): enhance the cytostatic effect of MMS
O=C(c1ccc(O)cc1)c1ccccc1O [Compound 200]	–	–	–	–	~10 µM	10 to 150 µM	–	–	–
Nc1nc(S)nc(O)c1/N=C/c1ccccc1 [Compound 189]	BER	inhibited the final ligation step of the repair reaction	had no effect on flap removal by FEN-1	reduced joining of the linear DNA molecules	–	–	IR sensitive	80%	–
O=C1Nc2ccccc2Oc2cc([N+](=O)[O-])cc([N+](=O)[O-])c21 [Compound 180]	–	–	–	–	12 µM	–	–	–	IC50 (HCT116 cells; HCT-116, read-out: IC50 HCT116 (head without unit)): 3 µM
Cc1oc(C(=O)O)cc1CSCc1cc(C(=O)O)c(C)o1 [Compound 197]	–	–	–	–	–	–	–	100%	–
CS(=O)(=O)NNC(=O)C(=O)NNc1ccccc1 [Compound 184]	–	–	–	–	–	–	–	–	inhibition of cell proliferation of HCT116 at 50 μM (MTT) (HCT116 cells; 50 μM, numbers printed under HCT116 in r92-r106: 16, 64, 124, 130, 165, 184 (30%), 195, 197, 198, 212): 184 (30%)
O=C(O)CSc1cc(Cl)c2nonc2c1[N+](=O)[O-] [Compound 64]	–	–	–	–	–	–	IR sensitive	66%	radiosensitizer activity (HCT116 and MCF10A cells): act as radiosensitizers; synergy with PARP inhibitors (HCT116 and MCF10A cells): act synergistically with PARP inhibitors
Cc1c(Br)cc(NCC(=O)N/N=C\c2cc([N+](=O)[O-])ccc2O)cc1Br [Compound 67]	BER	inhibited the final ligation step of the repair reaction	had no effect on flap removal by FEN-1	had no effect	8 µM	8 µM	IR, MMS sensitive	–	synergy with PARP inhibitors (HCT116 and MCF10A cells): act synergistically with PARP inhibitors; enhancement of the cytostatic effect of MMS (HCT116 and MCF10A cells): enhance the cytostatic effect of MMS
